“Also recorded” adds a separate entry of the source.
What was measured:
[1] = system: hippocampal rat embrio neurons; assay: neurite outgrowth in primary cultures of hippocampal neurons; assay type: cell-based
[2] = system: cortical rat embrio neurons; assay: neurite outgrowth in primary cultures of cortical neurons; assay type: cell-based; details: 0.1, 1, 10 and 100 micromoles/l
stroke patients = details: Hirata et al.; cited from earlier work
[3] = system: rats with cerebral embolism; assay: spatial learning and retention (watermaze) of rats with cerebral embolism; assay type: in vivo, male Wistar rats
Protocol: This assumption is confirmed by the effect of nefiracetam on spatial learning and retention in rats with cerebral embolism, treated for 9 days with nefiracetam or vehicle, starting within 24 hours of embolization.
In male Wistar rats weighing 190-220 g a total of 700 microspheres (48 μm in diameter) were injected into the right common carotid artery of each animal, whereby a quasi-immediate embolism occurs. The embolized animals were randomly divided into 2 groups, each of 13 animals with same neurological deficit, designated as “Control” (embolism plus Vehicle), or “Nefiracetam” (embolism plus nefiracetam 10 mg/kg/day). In addition, a group of 13 “Normal (Sham)” non-embolized animals were used. The administration of nefiracetam or of its vehicle started within the same day of embolization and treatment lasted 9 days. Seven days after embolization, the embolized rats were submitted to a watermaze test, said watermaze being adapted from the Morris water task. The time taken to find the platform (latency) was determined. […] The experiment was carried out in two different sessions. In the first session, at the seventh day embolized rats were submitted to the spatial learning test performed three trials per day for three days (from day 7 to day 9). In the second session, one week after the last day of spatial learning test […], a retention test was performed whereby each rat was given three consecutive trials to learn and remember the location of the platform.

[4] = system: patients after a stroke (cerebral infarction or cerebral hemorrhage); details: Ohtomo et al., global results; cited from earlier work
post-stroke patients = assay: controlled clinical trial against placebo in post-stroke patients, improvement rating by duration from stroke; assay type: in vivo, human
Protocol: The activity of nefiracetam to improve ADL in post-stroke patients has been discovered during a controlled clinical trial against placebo. The compound has been administered orally (450 mg/day, three times daily) to 32 post-stroke patients within six months after the event whilst, concurrently, 27 patients received placebo. The two groups of patients were followed during at least 8 weeks and followed up at the end of week 4 and at the end of week 8 on a symptom scale measuring Activities of Daily Living. […] Among the above 59 patients, 19 received nefiracetam and 10 received placebo within three months after stroke. […] The difference was significant (p=0.035, χ^2 test).
Further, the action of nefiracetam on the patient who had been treated with nefiracetam early after stroke or later was evaluated.

[5] = Overall (all durations from stroke)
[6] = duration from stroke <12 months
[7] = duration from stroke ≧12 months

Cc1cccc(C)c1NC(=O)CN1CCCC1=O [nefiracetam, N-(2,6-dimethylphenyl)-2-(2-oxo-1-pyrrolidinyl)acetamide]
neurotrophic effect (neurite outgrowth) ([1]; 0.1, 1, 10 and 100 micromoles/l): significantly increasing neurite outgrowth | neurite outgrowth effect in combination with bFGF ([1]; with bFGF): potentiated by bFGF | neurotrophic effect (neurite outgrowth) [2]: significantly increasing neurite outgrowth | improvement of mental function tests (stroke patients): not significant | Number of rats which failed to find the platform within 180 Sec., Spatial learning test ([3]; Day 7, 10 mg/kg/day, of 13 rats): 8 | Latency to reach the platform, Spatial learning test ([3]; Day 7 after embolization, 10 mg/kg/day for 9 days, n 13): 147.6 ± 14.1 s | Number of rats which failed to find the platform within 180 Sec., Spatial learning test ([3]; Day 8, 10 mg/kg/day, of 13 rats): 2 | Latency to reach the platform, Spatial learning test ([3]; Day 8 after embolization, 10 mg/kg/day for 9 days, n 13): 83.7 ± 17.4 s | Number of rats which failed to find the platform within 180 Sec., Spatial learning test ([3]; Day 9, 10 mg/kg/day, of 13 rats): 2 | Latency to reach the platform, Spatial learning test ([3]; Day 9 after embolization, 10 mg/kg/day for 9 days, n 13): 93.1 ± 16.2 s | Number of rats which failed to find the platform within 180 Sec., Retention test ([3]; Day 17, 10 mg/kg/day, of 13 rats): 2 | Latency to reach the platform, Retention test ([3]; Day 17 after embolization (after washout), 10 mg/kg/day for 9 days, n 13): 72.2 ± 17.0 s | effect in retention test vs vehicle (in words) ([3]; day 17 after embolization, after washout): maintained even after washout; also recorded: remakable difference | learning ability in place-learning watermaze task vs vehicle (in words) ([3]; days 7 to 9 after embolization): clear difference between nefiracetam and vehicle-treated animals | activities of daily living, nefiracetam vs placebo [4]: no significant difference between the two groups | psychiatric symptoms [4]: improves the psychiatric symptoms | improvement on symptom scale measuring Activities of Daily Living (in words) (post-stroke patients; 450 mg/day orally, within six months after stroke, 32 patients, weeks 4 and 8): moderate or remarkable improvement | Emotional Disturbance, Improvement Rate (Percent Patients Remarkably or Moderately Improved) (post-stroke patients; [5]): Overall 22.6% | Global Improvement Rating, Improvement Rate (Percent Patients Remarkably or Moderately Improved) (post-stroke patients; [5]): Overall 32.3% | Intellectual Dysfunction, Improvement Rate (Percent Patients Remarkably or Moderately Improved) (post-stroke patients; [5]): Overall 11.9% | Psychiatric Symptoms, Improvement Rate (Percent Patients Remarkably or Moderately Improved) (post-stroke patients; [5]): Overall 30.8% | Reduced Spontaneity, Improvement Rate (Percent Patients Remarkably or Moderately Improved) (post-stroke patients; [5]): Overall 23.4% | ADL Improvement, Improvement Rate (Percent Patients Remarkably or Moderately Improved) (post-stroke patients; duration from stroke <3 months): 41.7% | ADL Improvement, Improvement Rate (patients improved/patients) (post-stroke patients; duration from stroke <3 months): 5/12 | Emotional Disturbance, Improvement Rate (Percent Patients Remarkably or Moderately Improved) (post-stroke patients; duration from stroke <3 months): 70.6% | Emotional Disturbance, Improvement Rate (patients improved/patients) (post-stroke patients; duration from stroke <3 months): 12/17 | Global Improvement Rating, Improvement Rate (Percent Patients Remarkably or Moderately Improved) (post-stroke patients; duration from stroke <3 months): 68.4% | Global Improvement Rating, Improvement Rate (patients improved/patients) (post-stroke patients; duration from stroke <3 months): 13/19 | Intellectual Dysfunction, Improvement Rate (Percent Patients Remarkably or Moderately Improved) (post-stroke patients; duration from stroke <3 months): 43.8% | Intellectual Dysfunction, Improvement Rate (patients improved/patients) (post-stroke patients; duration from stroke <3 months): 7/16 | Psychiatric Symptoms, Improvement Rate (Percent Patients Remarkably or Moderately Improved) (post-stroke patients; duration from stroke <3 months): 68.4% | Psychiatric Symptoms, Improvement Rate (patients improved/patients) (post-stroke patients; duration from stroke <3 months): 13/19 | Reduced Spontaneity, Improvement Rate (Percent Patients Remarkably or Moderately Improved) (post-stroke patients; duration from stroke <3 months): 61.1% | Reduced Spontaneity, Improvement Rate (patients improved/patients) (post-stroke patients; duration from stroke <3 months): 11/18 | ADL Improvement, Improvement Rate (Percent Patients Remarkably or Moderately Improved) (post-stroke patients; duration from stroke <6 months): 21.7% | ADL Improvement, Improvement Rate (patients improved/patients) (post-stroke patients; duration from stroke <6 months): 5/23 | Emotional Disturbance, Improvement Rate (Percent Patients Remarkably or Moderately Improved) (post-stroke patients; duration from stroke <6 months): 48.3% | Emotional Disturbance, Improvement Rate (patients improved/patients) (post-stroke patients; duration from stroke <6 months): 14/29 | Global Improvement Rating, Improvement Rate (Percent Patients Remarkably or Moderately Improved) (post-stroke patients; duration from stroke <6 months): 50.0% | Global Improvement Rating, Improvement Rate (patients improved/patients) (post-stroke patients; duration from stroke <6 months): 16/32 | Intellectual Dysfunction, Improvement Rate (Percent Patients Remarkably or Moderately Improved) (post-stroke patients; duration from stroke <6 months): 29.6% | Intellectual Dysfunction, Improvement Rate (patients improved/patients) (post-stroke patients; duration from stroke <6 months): 8/27 | Psychiatric Symptoms, Improvement Rate (Percent Patients Remarkably or Moderately Improved) (post-stroke patients; duration from stroke <6 months): 50.0% | Psychiatric Symptoms, Improvement Rate (patients improved/patients) (post-stroke patients; duration from stroke <6 months): 16/32 | Reduced Spontaneity, Improvement Rate (Percent Patients Remarkably or Moderately Improved) (post-stroke patients; duration from stroke <6 months): 46.7% | Reduced Spontaneity, Improvement Rate (patients improved/patients) (post-stroke patients; duration from stroke <6 months): 14/30 | ADL Improvement, Improvement Rate (Percent Patients Remarkably or Moderately Improved) (post-stroke patients; [6]): 14.3% | ADL Improvement, Improvement Rate (patients improved/patients) (post-stroke patients; [6]): 5/35 | Emotional Disturbance, Improvement Rate (Percent Patients Remarkably or Moderately Improved) (post-stroke patients; [6]): 48.8% | Emotional Disturbance, Improvement Rate (patients improved/patients) (post-stroke patients; [6]): 21/43 | Global Improvement Rating, Improvement Rate (Percent Patients Remarkably or Moderately Improved) (post-stroke patients; [6]): 50.0% | Global Improvement Rating, Improvement Rate (patients improved/patients) (post-stroke patients; [6]): 24/48 | Intellectual Dysfunction, Improvement Rate (Percent Patients Remarkably or Moderately Improved) (post-stroke patients; [6]): 23.1% | Intellectual Dysfunction, Improvement Rate (patients improved/patients) (post-stroke patients; [6]): 9/39 | Psychiatric Symptoms, Improvement Rate (Percent Patients Remarkably or Moderately Improved) (post-stroke patients; [6]): 50.0% | Psychiatric Symptoms, Improvement Rate (patients improved/patients) (post-stroke patients; [6]): 24/48 | Reduced Spontaneity, Improvement Rate (Percent Patients Remarkably or Moderately Improved) (post-stroke patients; [6]): 46.7% | Reduced Spontaneity, Improvement Rate (patients improved/patients) (post-stroke patients; [6]): 21/45 | ADL Improvement, Improvement Rate (Percent Patients Remarkably or Moderately Improved) (post-stroke patients; duration from stroke ≧3 months): 1.2% | ADL Improvement, Improvement Rate (patients improved/patients) (post-stroke patients; duration from stroke ≧3 months): 1/81 | ADL Improvement, Improvement Rate (Percent Patients Remarkably or Moderately Improved) (post-stroke patients; duration from stroke ≧6 months): 1.4% | ADL Improvement, Improvement Rate (patients improved/patients) (post-stroke patients; duration from stroke ≧6 months): 1/70 | Emotional Disturbance, Improvement Rate (Percent Patients Remarkably or Moderately Improved) (post-stroke patients; duration from stroke ≧6 months): 14.7% | Emotional Disturbance, Improvement Rate (patients improved/patients) (post-stroke patients; duration from stroke ≧6 months): 14/95 | Global Improvement Rating, Improvement Rate (Percent Patients Remarkably or Moderately Improved) (post-stroke patients; duration from stroke ≧6 months): 26.5% | Global Improvement Rating, Improvement Rate (patients improved/patients) (post-stroke patients; duration from stroke ≧6 months): 26/98 | Intellectual Dysfunction, Improvement Rate (Percent Patients Remarkably or Moderately Improved) (post-stroke patients; duration from stroke ≧6 months): 6.1% | Intellectual Dysfunction, Improvement Rate (patients improved/patients) (post-stroke patients; duration from stroke ≧6 months): 5/82 | Psychiatric Symptoms, Improvement Rate (Percent Patients Remarkably or Moderately Improved) (post-stroke patients; duration from stroke ≧6 months): 24.5% | Psychiatric Symptoms, Improvement Rate (patients improved/patients) (post-stroke patients; duration from stroke ≧6 months): 24/98 | Reduced Spontaneity, Improvement Rate (Percent Patients Remarkably or Moderately Improved) (post-stroke patients; duration from stroke ≧6 months): 16.0% | Reduced Spontaneity, Improvement Rate (patients improved/patients) (post-stroke patients; duration from stroke ≧6 months): 15/94 | ADL Improvement, Improvement Rate (Percent Patients Remarkably or Moderately Improved) (post-stroke patients; [7]): 1.7% | ADL Improvement, Improvement Rate (patients improved/patients) (post-stroke patients; [7]): 1/58 | Emotional Disturbance, Improvement Rate (Percent Patients Remarkably or Moderately Improved) (post-stroke patients; [7]): 8.6% | Emotional Disturbance, Improvement Rate (patients improved/patients) (post-stroke patients; [7]): 7/81 | Global Improvement Rating, Improvement Rate (Percent Patients Remarkably or Moderately Improved) (post-stroke patients; [7]): 22.0% | Global Improvement Rating, Improvement Rate (patients improved/patients) (post-stroke patients; [7]): 18/82 | Intellectual Dysfunction, Improvement Rate (Percent Patients Remarkably or Moderately Improved) (post-stroke patients; [7]): 5.7% | Intellectual Dysfunction, Improvement Rate (patients improved/patients) (post-stroke patients; [7]): 4/70 | Psychiatric Symptoms, Improvement Rate (Percent Patients Remarkably or Moderately Improved) (post-stroke patients; [7]): 19.5% | Psychiatric Symptoms, Improvement Rate (patients improved/patients) (post-stroke patients; [7]): 16/82 | Reduced Spontaneity, Improvement Rate (Percent Patients Remarkably or Moderately Improved) (post-stroke patients; [7]): 10.1% | Reduced Spontaneity, Improvement Rate (patients improved/patients) (post-stroke patients; [7]): 8/79 | incontinence of urines (post-stroke patients; early treatment after stroke): tends to improve | neurological signs (post-stroke patients; early treatment after stroke): tends to improve

— patent US20040192759A1, “Use of nefiracetam for treating neurodegeneration” (priority 2004, published 2004)
